Laboratory results as given in paper PMC10385850, “Modified Hederagenin Derivatives Demonstrate Ex Vivo Anthelmintic Activity against Fasciola hepatica” (Pharmaceutics, 2023).
Entries after “also recorded” stand apart in the source; their conditions may differ. Read-outs that look alike come from different tables or passages of the source.

Key:
[1] = system: adult F. hepatica flukes (Italian strain); assay: Ex vivo dose response motility assay on adult liver flukes (Italian strain); assay type: cell-based, Fasciola hepatica; settings: for Average motility of 3 parasites treated with 4.4 µM, 24 hours / Average motility of 3 parasites treated with 4.4 µM, 48 hours / Average motility of 3 parasites treated with 4.4 µM, 72 hours / Average motility of 3 parasites treated with 13.3 µM, 24 hours / Average motility of 3 parasites treated with 13.3 µM, 48 hours / Average motility of 3 parasites treated with 13.3 µM, 72 hours / Average motility of 3 parasites treated with 40 µM, 24 hours / Average motility of 3 parasites treated with 40 µM, 48 hours / Average motility of 3 parasites treated with 40 µM, 72 hours: adult flukes Italian strain, score 1 to 6; for EC50: adult flukes, motility; for Effect on adult fluke (Italian strain) movement, in words: dose response, MC042 statement at 40 μM after 72 h
Experimental: The collection, ex vivo culturing and screening of adult liver fluke (Italian strain; n = 3/condition) was previously described. Dose response assays (40 µM, 13.3 µM and 4.4 µM) were conducted for MC014, MC042, MC035, MC055 and MC062 with motility scores recorded at 24, 48 and 72 h (Table S6).

[2] = system: immature F. hepatica flukes (Italian strain); assay: Ex vivo motility assay on immature liver flukes (Italian strain), single concentration and dose response; assay type: cell-based, Fasciola hepatica; settings: 40 µM; for Average motility of 4 parasites with 95% CI at 24 hour time point: score 1 normal to 5 no movement or death; for Effect on immature fluke motility, in words: by 72 h
Experimental: The six selected compounds (at 40 µM in 0.4% DMSO) were evaluated on immature flukes (n = 4/condition) at 24, 48 and 72 h (Table S4). The protocol for culturing and scoring (motility) of these life stages have been previously described. Due to restricted numbers of immature worms, a dose response assay was conducted only for MC042. Here, immature worms (n = 2/concentration tested) were screened against descending concentrations of MC042 (40 µM, 13.3 µM and 4.4 µM); motility scores were recorded at 24, 48 and 72 h (Table S5). The scoring pattern used is identical to that described for NEJs.

[3] = system: wild strain adult F. hepatica; assay: Ex vivo motility assay on adult liver flukes (wild strain); assay type: cell-based, Fasciola hepatica; settings: 40 µM; for Average motility of 4 parasites with 95% CI at 72 hour time point: wild strain adult flukes, score 1 good/normal to 6 no movement or dead; for Effect on wild strain adult fluke motility, in words: 72 h
Experimental: Due to the high number of active molecules and a shortage of Italian strain adult liver flukes, the eleven hit compounds were screened for 72 h at 40 µM (in 0.4% DMSO) on wild strain adult F. hepatica (n = 4/condition) of unknown provenance (Table S3). The protocol for culturing and scoring (motility) the activity of these compounds was previously described (1—good/normal; 2—moderate; 3—resting (less than 10 s pulses of body and head), 4—apathetic (less than 2 s pulses of body and head), 5—paralysis and 6–no movement or dead worms). Six compounds were deemed active in these assays and were selected for further screening.

[4] = system: F. hepatica newly excysted juveniles (NEJs), Italian strain; assay: Ex vivo screen against newly excysted juveniles (NEJs), phenotype and motility scoring; assay type: cell-based, Fasciola hepatica; settings: for Average phenotype of 25 NEJs with 95% CI, 24 hours / Average phenotype of 25 NEJs with 95% CI, 48 hours / Average phenotype of 25 NEJs with 95% CI, 72 hours: ultrastructure score 1 normal to 6 dead or dissolved; for Activity against NEJs (first screen), in words: 72 h co-culture
Experimental: […] The NEJs were excysted from metacercariae and assayed at 10 μM (in 0.1% DMSO) final concentration alongside negative (0.1% DMSO) and positive (10 μM TCBZ, in 0.1% DMSO) controls as previously described. The MC and IVL compound series were screened separately.
The motility (1—good/normal; 2—moderate; 3—low; 4—very little; 5—no movement) and phenotypic (ultrastructural changes) scores were noted according to a previously described scoring matrix (Figure S1 and Table S2).

[5] = system: Madin–Darby bovine kidney (MDBK) cells; assay: MTT cell viability assay on MDBK cells; assay type: cell-based
Experimental: MTT cell viability assays were performed on Madin–Darby bovine kidney (MDBK cells) for the five selected hederagenin derivatives (MC014, MC035, MC042, MC055 and MC062) using final concentrations of 100 μM, 75 μM, 50 μM, 25 μM, 10 μM, 5 μM and 1 μM (in 1% DMSO). Negative (1% v/v Triton X-100, Sigma-Aldrich, UK) and positive (1% v/v DMSO or media only) controls were included. The protocol was followed as previously described. Absolute EC50 values were calculated from the corrected absorbance of replicates by non-linear regression, after log transformation of concentrations and data normalization (where DMSO values represents 0% inhibition and TX-100 values represent 100% inhibition) using GrapPad Prism 8.

[6] = 48 h, immature flukes, score 1 to 5
[7] = 72 h, immature flukes, score 1 to 5
[8] = 72 h, read-out: EC50 with 95% CI on Adult Flukes (motility), 72 hour
[9] = 10 µM, 24 h, motility score 1 good/normal to 5 no movement
[10] = 10 µM, 48 h, motility score 1 good/normal to 5 no movement

CSc1nc2cc(Cl)c(Oc3cccc(Cl)c3Cl)cc2[nH]1 [Triclabendazole, reference compound]
Average motility of 3 parasites treated with 4.4 µM, 24 hours [1]: 1.00 (1.0; 1.0)
Average motility of 3 parasites treated with 4.4 µM, 48 hours [1]: 1.00 (1.0; 1.0)
Average motility of 3 parasites treated with 4.4 µM, 72 hours ([1]; 72 h): 1.00 (1.0; 1.0)
Average motility of 3 parasites treated with 13.3 µM, 24 hours [1]: 1.00 (1.0;1.0)
Average motility of 3 parasites treated with 13.3 µM, 48 hours [1]: 1.33 (0.6;1.9)
Average motility of 3 parasites treated with 13.3 µM, 72 hours ([1]; 72 h): 2.00 (0.8; 3.1)
Average motility of 3 parasites treated with 40 µM, 24 hours [1]: 2.33 (1.6; 2.9)
Average motility of 3 parasites treated with 40 µM, 48 hours [1]: 5.66 (5.0; 6.3)
Average motility of 3 parasites treated with 40 µM, 72 hours ([1]; 72 h): 6.00 (6.0; 6.0)
Average motility of 2 parasites treated with 40 µM, 24 hours ([2]; 24 h, immature flukes, dose response, score 1 to 5): 5.00 (5.0; 5.0)
Average motility of 4 parasites with 95% CI at 24 hour time point ([2]; 24 h, immature flukes): 5.0 (5.0,5.0)
Average motility of 2 parasites treated with 40 µM, 48 hours ([2]; 48 h, immature flukes, dose response, score 1 to 5): 5.00 (5.0; 5.0)
Average motility of 4 parasites with 95% CI at 48 hour time point [2, 6]: 5.0 (5.0,5.0)
Average motility of 2 parasites treated with 40 µM, 72 hours ([2]; 72 h, immature flukes, dose response, score 1 to 5): 5.00 (5.0; 5.0)
Average motility of 4 parasites with 95% CI at 72 hour time point [2, 7]: 5.0 (5.0,5.0)
Effect on immature fluke motility, in words [2]: completely immobile by 72 h
Average motility of 4 parasites with 95% CI at 72 hour time point [3]: 6.00 (6.0;6.0)
Average motility of NEJs with 95% CI, 24 hours (positive control) ([4]; 40µM, 24 h, 50 NEJs, score 1 to 5): 5.00 (5.0;5.0)
Average phenotype of NEJs with 95% CI, 24 hours (positive control) ([4]; 40µM, 24 h, 50 NEJs, score 1 to 6): 6.00 (6.0;6.0)
Average motility of NEJs with 95% CI, 48 hours (positive control) ([4]; 40µM, 48 h, 50 NEJs, score 1 to 5): 5.00 (5.0;5.0)
Average phenotype of NEJs with 95% CI, 48 hours (positive control) ([4]; 40µM, 48 h, 50 NEJs, score 1 to 6): 6.00 (6.0;6.0)
Average motility of NEJs with 95% CI, 72 hours (positive control) ([4]; 40µM, 72 h, 50 NEJs, score 1 to 5): 5.00 (5.0;5.0)
Average phenotype of NEJs with 95% CI, 72 hours (positive control) ([4]; 40µM, 72 h, 50 NEJs, score 1 to 6): 6.00 (6.0;6.0)

CC1(C)CC[C@]2(C(=O)O)CC[C@]3(C)C(=CC[C@@H]4[C@@]5(C)CC[C@@H]6OC(C)(C)OC[C@@]6(C)[C@@H]5CC[C@]43C)[C@@H]2C1 [MC014]
Average motility of 3 parasites treated with 4.4 µM, 24 hours [1]: 1.00 (1.0;1.0)
Average motility of 3 parasites treated with 4.4 µM, 48 hours [1]: 1.00 (1.0;1.0)
Average motility of 3 parasites treated with 4.4 µM, 72 hours ([1]; 72 h): 3.00 (1.8; 4.1)
Average motility of 3 parasites treated with 13.3 µM, 24 hours [1]: 1.33 (0.6;1.9)
Average motility of 3 parasites treated with 13.3 µM, 48 hours [1]: 1.66 (0.3;2.9)
Average motility of 3 parasites treated with 13.3 µM, 72 hours ([1]; 72 h): 3.33 (2.6;3.9)
Average motility of 3 parasites treated with 40 µM, 24 hours [1]: 3.33 (2.6;3.9)
Average motility of 3 parasites treated with 40 µM, 48 hours [1]: 4.00 (4.0;4.0)
Average motility of 3 parasites treated with 40 µM, 72 hours ([1]; 72 h): 5.33 (4.0;6.6)
EC50 ([1]; 24 h exposure, read-out: EC50 with 95% CI on Adult Flukes (motility), 24 hour): 13.5 µM
EC50 [1, 8]: 9.3 µM
Effect on adult fluke (Italian strain) movement, in words [1]: Decreased movement
Average motility of 4 parasites with 95% CI at 24 hour time point ([2]; 24 h, immature flukes): 5.00 (5.0;5.0)
Average motility of 4 parasites with 95% CI at 48 hour time point [2, 6]: 5.00 (5.0;5.0)
Average motility of 4 parasites with 95% CI at 72 hour time point [2, 7]: 5.00 (5.0;5.0)
Effect on immature fluke motility, in words [2]: paralyzed the assayed immature flukes
CC50 with 95% CI on MDBK cells (cytotoxicity) ([5]; MDBK cells, MTT, 24 h exposure): Undefined ^c
Effect on MDBK cell proliferation, in words ([5]; dose response titration up to 100 μM): modest proliferative effect
Cytotoxicity on MDBK cells, in words ([5]; highest concentration tested 100 μM): not cytotoxic even at the highest concentration tested
Effect on wild strain adult fluke motility, in words [3]: no motility after 72 h; also recorded: performed very well
Average motility of 4 parasites with 95% CI at 72 hour time point [3]: 6.00 (6.0;6.0)
Average motility of 25 NEJs with 95% CI, 24 hours [4, 9]: 5.00 (5.0;5.0)
Average phenotype of 25 NEJs with 95% CI, 24 hours ([4]; 10 µM, 24 h): 4.12 (3.5;4.6)
Average motility of 25 NEJs with 95% CI, 48 hours [4, 10]: 5.00 (5.0;5.0)
Average phenotype of 25 NEJs with 95% CI, 48 hours ([4]; 10 µM, 48 h): 6.00 (6.0;6.0)
Average motility of 25 NEJs with 95% CI, 72 hours ([4]; 10 µM, 72 h, motility score 1 good/normal to 5 no movement): 5.00 (5.0;5.0)
Average phenotype of 25 NEJs with 95% CI, 72 hours ([4]; 10 µM, 72 h): 6.00 (6.0;6.0)
Activity against NEJs (first screen), in words ([4]; 10 µM): maximal alterations to both phenotype/ultrastructure and motility

CC1(C)CC[C@]2(NC(=O)N3CCNCC3)CC[C@]3(C)C(=CCC4[C@@]5(C)CCC6OC(C)(C)OC[C@@]6(C)C5CC[C@]43C)C2C1 (stereo partly drawn) [MC035, N-((4aR,6aR,6bS,8aS,14bR)-2,2,4a,6a,6b,11,11,14b-Octamethyl-4a,5,6,6a,6b,7,8,9,10,11,12,12a,14,14a, 14b,15,16,16a-octadecahydro-4H-piceno[3,4-d][1,3]dioxin-8a(4bH)-yl)piper-azine-1-carboxamide]
Average motility of 3 parasites treated with 4.4 µM, 24 hours [1]: 1.00 (1.0;1.0)
Average motility of 3 parasites treated with 4.4 µM, 48 hours [1]: 1.00 (1.0;1.0)
Average motility of 3 parasites treated with 4.4 µM, 72 hours ([1]; 72 h): 1.00 (1.0;1.0)
Average motility of 3 parasites treated with 13.3 µM, 24 hours [1]: 1.00 (1.0;1.0)
Average motility of 3 parasites treated with 13.3 µM, 48 hours [1]: 1.00 (1.0;1.0)
Average motility of 3 parasites treated with 13.3 µM, 72 hours ([1]; 72 h): 3.66 (2.3; 4.9)
Average motility of 3 parasites treated with 40 µM, 24 hours [1]: 2.33 (1.6;2.9)
Average motility of 3 parasites treated with 40 µM, 48 hours [1]: 4.33 (3.6;4.9)
Average motility of 3 parasites treated with 40 µM, 72 hours ([1]; 72 h): 5.00 (3.8;6.1)
EC50 [1, 8]: 14.3 µM
Effect on adult fluke (Italian strain) movement, in words [1]: Decreased movement
Average motility of 4 parasites with 95% CI at 24 hour time point ([2]; 24 h, immature flukes): 5.00 (5.0;5.0)
Average motility of 4 parasites with 95% CI at 48 hour time point [2, 6]: 5.00 (5.0;5.0)
Average motility of 4 parasites with 95% CI at 72 hour time point [2, 7]: 5.00 (5.0;5.0)
Effect on immature fluke motility, in words [2]: paralyzed the assayed immature flukes
CC50 ([5]; MDBK cells, MTT, 24 h exposure, read-out: CC50 with 95% CI on MDBK cells (cytotoxicity)): 79.8 µM
Effect on wild strain adult fluke motility, in words [3]: partial paralysis
Average motility of 4 parasites with 95% CI at 72 hour time point [3]: 5.75 (5.2; 6.2)
Average motility of 25 NEJs with 95% CI, 24 hours [4, 9]: 5.00 (5.0;5.0)
Average phenotype of 25 NEJs with 95% CI, 24 hours ([4]; 10 µM, 24 h): 6.00 (6.0;6.0)
Average motility of 25 NEJs with 95% CI, 48 hours [4, 10]: 5.00 (5.0;5.0)
Average phenotype of 25 NEJs with 95% CI, 48 hours ([4]; 10 µM, 48 h): 6.00 (6.0;6.0)
Average phenotype of 25 NEJs with 95% CI, 72 hours ([4]; 10 µM, 72 h): 6.00 (6.0;6.0)
Activity against NEJs (first screen), in words ([4]; 10 µM): maximal alterations to both phenotype/ultrastructure and motility
